Experiments:
[1] = system: A549; assay: In vitro inhibitory concentration required against human lung A549 carcinoma cells proliferation; type: functional, cell-based
[2] = system: NIH3T3; assay: In vitro inhibitory concentration required against NIH3T3 cells proliferation; type: functional, cell-based; settings: Mus musculus
[3] = system: P388; assay: Percent of cells in G1 phase of cell cycle, was determined after 21 hrs of incubation of P388 cells; type: functional, Mus musculus
[4] = system: P388; assay: In vitro inhibitory concentration required against murine P388 leukemic cells proliferation; type: functional, cell-based; settings: Mus musculus
[5] = system: P388; assay: Ability to induce apoptosis after 21 hrs of incubation of P388 cells; type: functional, cell-based; settings: Mus musculus
[6] = system: P388; assay: Percent of cells in sub-G1 phase (apoptotic cells) of cell cycle was determined after 21 hrs of incubation of P388 cells; type: functional, Mus musculus
[7] = system: P388; assay: Percent of cells in G1 phase of cell cycle was determined after 21 hrs of incubation of P388 cells; type: functional, Mus musculus

C[C@@H]1CCC2[C@@H](C)[C@@H](O[C@H](C#N)c3ccc(Br)cc3)O[C@@H]3O[C@]4(C)CCC1[C@@]23OO4 (stereo partly specified)
IC50 [1]: 0.039 µM
IC50 [2]: 5120 µM
G1 [3]: 63%
IC50 [4]: 0.011 µM
Concentration [5]: 25 nM
Apoptosis [6]: 51%

C[C@@H]1CCC2[C@@H](C)[C@@H](O[C@@H](C#N)c3ccccc3)O[C@@H]3O[C@]4(C)CCC1[C@@]23OO4 (stereo partly specified)
IC50 [1]: 1.23 µM
G1 [3]: 67%
IC50 [4]: 0.238 µM
Concentration [5]: 500 nM
Apoptosis [6]: 53%

C[C@@H]1CCC2[C@@H](C)[C@@H](O[C@@H](C#N)c3ccc(Br)cc3)O[C@@H]3O[C@]4(C)CCC1[C@@]23OO4 (stereo partly specified)
IC50 [1]: 0.047 µM
IC50 [2]: 3050 µM
G1 [3]: 62%
IC50 [4]: 0.012 µM
Concentration [5]: 25 nM
Apoptosis [6]: 49%

C[C@@H]1CCC2[C@@H](C)[C@@H](OCC#N)O[C@@H]3O[C@]4(C)CCC1[C@@]23OO4 (stereo partly specified)
IC50 [1]: 79.4 µM
G1 [3]: 65%
IC50 [4]: 1.85 µM
Concentration [5]: 10000 nM
Apoptosis [6]: 7%

CC[C@]1(O)C[C@H]2CN(CCc3c([nH]c4ccccc34)[C@@](C(=O)OC)(c3cc4c(cc3OC)N(C=O)[C@H]3[C@@](O)(C(=O)OC)[C@H](OC(C)=O)[C@]5(CC)C=CCN6CC[C@]43[C@@H]65)C2)C1 [VINCRISTINE]
IC50 [1]: 0.018 µM
IC50 [4]: 0.002 µM

C[C@@H]1CCC2[C@@H](C)[C@@H](O[C@H](C#N)c3ccccc3)O[C@@H]3O[C@]4(C)CCC1[C@@]23OO4 (stereo partly specified)
IC50 [1]: 0.662 µM
G1 [7]: 61%
IC50 [4]: 0.048 µM
Concentration [5]: 100 nM
Apoptosis [6]: 45%

C[C@@H]1CCC2[C@@H](C)[C@@H](OC(C#N)c3ccc(Br)cc3)O[C@@H]3O[C@]4(C)CCC1[C@@]23O4 (stereo partly specified)
IC50 [1]: 42 µM
IC50 [4]: 24.2 µM

Reference: ChEMBL document CHEMBL1134048, “Novel antitumor artemisinin derivatives targeting G1 phase of the cell cycle” (Bioorg Med Chem Lett, 2001)
